Laboratory results published in ChEMBL document CHEMBL5518193, “Discovery of N-alkyl-N-benzyl thiazoles as novel TRPC antagonists for the treatment of glioblastoma multiforme” (Eur J Med Chem, 2024).
Active and inactive are the calls of the source. The calls are words filed in the database; no cut-off is given here.

The compounds below were run on U-87 MG (assay: Antitumor activity against human U87 cells xenografted in BALB/c nude mouse assessed as tumor growth inhibition at 50 mg/kg/day administered as liposome encapsulated form for 15 days and measured every 3 days by vernier caliper). Details: 360 h, time 15 day, read-out: TGI.
Type: functional, U-87MG ATCC

| SMILES | inhibition in vivo at 50 mg/kg/day [%] |
| --- | --- |
| Cn1nnc2c(C(N)=O)ncn2c1=O [TEMOZOLOMIDE] | 36.5 |

What follows are compounds tested against T1, Short transient receptor potential channel 6 (Homo sapiens) (UniProt Q9Y210) (assay: Antagonist activity at human TRPC6 assessed as inhibition of channel activity at 10 uM relative to control). Details: filed as antagonist.
T1 sequence (whole entry): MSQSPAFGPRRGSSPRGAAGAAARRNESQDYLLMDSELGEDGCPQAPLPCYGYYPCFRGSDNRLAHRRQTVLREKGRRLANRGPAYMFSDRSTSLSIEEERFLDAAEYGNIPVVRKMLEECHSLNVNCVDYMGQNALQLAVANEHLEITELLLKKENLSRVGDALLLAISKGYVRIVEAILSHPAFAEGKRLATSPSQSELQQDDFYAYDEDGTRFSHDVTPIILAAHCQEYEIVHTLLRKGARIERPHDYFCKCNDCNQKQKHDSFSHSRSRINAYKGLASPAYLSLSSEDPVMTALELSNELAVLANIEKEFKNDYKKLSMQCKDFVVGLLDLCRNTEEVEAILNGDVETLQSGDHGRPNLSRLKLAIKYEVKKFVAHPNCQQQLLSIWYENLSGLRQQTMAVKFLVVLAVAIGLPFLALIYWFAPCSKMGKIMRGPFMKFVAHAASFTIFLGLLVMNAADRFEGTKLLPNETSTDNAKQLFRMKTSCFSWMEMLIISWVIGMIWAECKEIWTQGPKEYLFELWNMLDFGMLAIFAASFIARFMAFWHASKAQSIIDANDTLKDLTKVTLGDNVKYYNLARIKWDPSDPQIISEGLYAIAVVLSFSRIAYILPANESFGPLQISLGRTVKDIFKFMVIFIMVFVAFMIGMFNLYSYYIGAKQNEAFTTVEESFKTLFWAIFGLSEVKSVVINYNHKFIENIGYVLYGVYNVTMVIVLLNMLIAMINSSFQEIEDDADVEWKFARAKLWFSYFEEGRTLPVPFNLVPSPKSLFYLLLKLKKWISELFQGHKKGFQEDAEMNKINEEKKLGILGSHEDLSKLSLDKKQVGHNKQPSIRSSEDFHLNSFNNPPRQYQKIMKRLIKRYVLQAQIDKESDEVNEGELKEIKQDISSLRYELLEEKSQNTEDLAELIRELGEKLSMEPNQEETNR

| SMILES | inhibition [%] |
| --- | --- |
| COc1cccc2sc(N(CCN(C)C)C(=O)c3ccc4c(c3)CCCC4)nc12 | 84.4 |

What follows are compounds tested against T2, Short transient receptor potential channel 6 (Homo sapiens, UniProt Q9Y210) (assay: Antagonist activity at TRPC6 (unknown origin) assessed as inhibition of channel activity). Details: not given.
T2 sequence (Q9Y210 whole entry): T1 sequence (whole entry)

| SMILES | IC50 [nM] |
| --- | --- |
| CC(C)(C)c1ccc(Oc2ccc(C(=O)N3CCC(c4ccc(N)nn4)CC3)cc2)cc1 | 13 |
| N#Cc1ccc(O[C@@H]2c3ccccc3C[C@@H]2N2CCC[C@@H](N)C2)cc1 | 0.22 |
| CC1CC(C)CN(C(=O)c2csc(Nc3ccc4c(c3)OCO4)n2)C1 (stereo not drawn) | 10 |
| COc1cccc2sc(N(CCN(C)C)C(=O)c3ccc4c(c3)CCCC4)nc12 | 4200 |
| Cc1sc(Nc2ccc(Cl)cc2F)nc1C(=O)N1CCC[C@H](C)[C@@H]1C | 21 |
| C=C[C@@](C)(O)CC[C@H]1C(=C)C[C@H](OC(=O)NC)[C@H]2C(C)(C)CCC[C@]12C | 5.8 |
| CCOC(=O)N1CCC(C)(C2C=C(O)N3N=C(C)C(c4ccc(F)cc4)C3=N2)CC1 (stereo not drawn) | 1000 |

Each compound was assayed against T3, Short transient receptor potential channel 6 (Mus musculus) (UniProt Q61143) (assay: Antagonist activity at mouse TRPC6 stably expressed in HEK293 cells assessed as inhibition of calcium influx at 10 uM by calcium fluorescence assay relative to control). Details: not given.
T3 sequence (whole entry): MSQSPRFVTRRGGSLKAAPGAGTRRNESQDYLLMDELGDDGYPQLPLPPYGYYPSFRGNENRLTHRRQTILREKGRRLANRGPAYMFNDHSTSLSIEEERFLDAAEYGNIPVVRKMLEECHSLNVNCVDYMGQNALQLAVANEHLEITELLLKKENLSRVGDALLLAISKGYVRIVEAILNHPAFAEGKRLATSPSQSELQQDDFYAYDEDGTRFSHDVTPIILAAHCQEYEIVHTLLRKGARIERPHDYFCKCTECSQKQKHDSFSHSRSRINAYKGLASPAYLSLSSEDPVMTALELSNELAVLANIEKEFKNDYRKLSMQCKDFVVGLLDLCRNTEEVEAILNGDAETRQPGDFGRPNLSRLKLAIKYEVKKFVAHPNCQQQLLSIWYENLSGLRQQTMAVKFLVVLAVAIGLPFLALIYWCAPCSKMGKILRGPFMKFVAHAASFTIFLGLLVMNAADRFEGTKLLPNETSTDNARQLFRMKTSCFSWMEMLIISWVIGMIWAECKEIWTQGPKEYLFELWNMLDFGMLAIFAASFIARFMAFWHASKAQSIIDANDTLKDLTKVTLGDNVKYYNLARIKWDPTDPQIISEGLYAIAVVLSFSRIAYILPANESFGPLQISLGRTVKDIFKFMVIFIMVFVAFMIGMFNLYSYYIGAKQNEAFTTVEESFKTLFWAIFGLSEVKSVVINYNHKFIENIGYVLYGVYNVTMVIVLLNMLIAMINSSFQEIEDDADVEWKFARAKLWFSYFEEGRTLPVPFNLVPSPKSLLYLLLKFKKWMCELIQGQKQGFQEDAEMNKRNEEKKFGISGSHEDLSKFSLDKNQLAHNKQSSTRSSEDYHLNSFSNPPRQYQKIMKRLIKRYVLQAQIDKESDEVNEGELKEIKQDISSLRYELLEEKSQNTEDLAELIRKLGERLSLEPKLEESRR
Type: cell-based

| SMILES | inhibition [%] |
| --- | --- |
| CCOC(=O)c1csc(N(CCN)Cc2c(F)c(F)c(F)c(F)c2F)n1 | 29.2 |
| CCOC(=O)c1csc(N(CCN)Cc2ccc(OC(F)F)cc2)n1 | 26.1 |
| CCOC(=O)c1csc(N(CCNS(C)(=O)=O)Cc2ccc3ccccc3c2)n1 | 32.4 |
| CCOC(=O)c1csc(N(CCN)Cc2ccccc2)n1 | 30.5 |
| CCOC(=O)c1csc(N(CCNC(=O)OC(C)(C)C)C(=O)c2ccc([N+](=O)[O-])cc2)n1 | 30.3 |
| NCCN(Cc1ccc2ccccc2c1)c1nc(C(=O)O)cs1 | 29 |
| CCOC(=O)c1csc(N(CCN)Cc2ccc([N+](=O)[O-])cc2)n1 | 28.3 |
| NCCN(Cc1cccc(C(F)(F)F)c1)c1nc(C(=O)Nc2ccc(O)cc2)cs1 | 10.8 |
| NCCN(Cc1ccc2ccccc2c1)c1nc(C(=O)NC23CC4CC(CC(C4)C2)C3)cs1 | 35.6 |
| CCOC(=O)c1csc(N(CCNC(=O)OC(C)(C)C)C(=O)c2ccc(C(F)(F)F)cc2)n1 | 18.7 |
| CCOC(=O)c1csc(N(CCNS(N)(=O)=O)Cc2ccc3ccccc3c2)n1 | 0.8 |
| CCOC(=O)c1csc(N(CCN)Cc2cccc([N+](=O)[O-])c2)n1 | 22.1 |
| CCOC(=O)c1csc(N(CCN)Cc2cccc(F)c2F)n1 | 14.7 |
| CCOC(=O)c1csc(N(CCN)C(=O)c2ccc([N+](=O)[O-])cc2)n1 | 23 |
| CCOC(=O)c1csc(NCCN)n1 | 19.3 |
| NCCN(Cc1cccc(C(F)(F)F)c1)c1nc(C(=O)Nc2ncc[nH]2)cs1 | 18.5 |

Same assay, conditions: filed as antagonist

| SMILES | inhibition [%] |
| --- | --- |
| CCOC(=O)c1csc(N(CCN)Cc2ccc3cc(Br)ccc3c2)n1 | 56.8 |
| CCOC(=O)c1csc(N(CCN)Cc2ccc3ccccc3c2)n1 | 97.9 |
| CCN(CC)CCNC(=O)c1csc(N(CCN)Cc2cccc(C(F)(F)F)c2)n1 | 50.6 |
| CCN(CC)CCNC(=O)c1csc(N(CCN)Cc2ccc3ccccc3c2)n1 | 53.3 |
| CCOC(=O)c1csc(N(CCN)Cc2cccc(OC(F)F)c2)n1 | 40.9 |
| COc1cccc2sc(N(CCN(C)C)C(=O)c3ccc4c(c3)CCCC4)nc12 | 84.8 |
| CCOC(=O)c1csc(N(CCN)C(=O)c2ccc(C(F)(F)F)cc2)n1 | 44.2 |
| CCOC(=O)c1csc(N(CCN)Cc2cccc3ccccc23)n1 | 77.6 |
| CCOC(=O)c1csc(N(CCN)Cc2ccc3ccccc3n2)n1 | 56.6 |
| CCOC(=O)c1csc(N(CCN)Cc2cccc(C(F)(F)F)c2)n1 | 92.2 |
| NCCN(Cc1cccc(C(F)(F)F)c1)c1nc(C(=O)NCCc2ccccc2)cs1 | 81.9 |
| CCOC(=O)c1csc(N(CCN)Cc2ccc(C(F)(F)F)cc2)n1 | 84.6 |
| CCOC(=O)c1csc(N(CCN)Cc2cc(F)ccc2Br)n1 | 59.5 |

What follows are compounds tested against T4, Short transient receptor potential channel 3 (Homo sapiens, UniProt Q13507) (assay: Antagonist activity at TRPC3 (unknown origin) assessed as inhibition of channel activity). Details: not given.
T4 sequence (Q13507 whole entry): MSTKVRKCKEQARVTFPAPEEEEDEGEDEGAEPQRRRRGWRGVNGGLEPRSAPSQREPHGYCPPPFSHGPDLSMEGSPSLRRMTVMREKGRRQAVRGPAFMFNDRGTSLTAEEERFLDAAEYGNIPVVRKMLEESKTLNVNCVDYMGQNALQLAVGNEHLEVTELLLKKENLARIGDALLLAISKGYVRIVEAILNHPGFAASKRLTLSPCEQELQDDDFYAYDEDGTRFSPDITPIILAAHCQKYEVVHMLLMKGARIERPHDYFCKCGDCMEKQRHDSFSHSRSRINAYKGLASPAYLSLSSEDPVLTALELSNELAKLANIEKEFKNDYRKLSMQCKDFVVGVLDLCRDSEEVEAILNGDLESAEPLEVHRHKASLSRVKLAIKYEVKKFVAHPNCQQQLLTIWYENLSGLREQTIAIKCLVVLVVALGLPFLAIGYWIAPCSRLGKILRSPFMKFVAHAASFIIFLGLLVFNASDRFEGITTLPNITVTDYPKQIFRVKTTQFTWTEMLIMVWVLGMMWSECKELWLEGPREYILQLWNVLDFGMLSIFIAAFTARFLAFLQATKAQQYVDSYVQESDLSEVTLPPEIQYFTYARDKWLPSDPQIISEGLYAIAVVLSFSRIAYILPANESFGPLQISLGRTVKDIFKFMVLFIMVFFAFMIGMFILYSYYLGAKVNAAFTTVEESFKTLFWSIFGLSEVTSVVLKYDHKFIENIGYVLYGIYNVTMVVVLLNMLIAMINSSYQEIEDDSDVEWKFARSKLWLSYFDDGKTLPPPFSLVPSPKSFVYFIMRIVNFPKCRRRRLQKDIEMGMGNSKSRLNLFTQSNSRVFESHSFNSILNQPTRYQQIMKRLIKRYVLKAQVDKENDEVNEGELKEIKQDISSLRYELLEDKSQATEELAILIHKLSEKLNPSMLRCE

| SMILES | IC50 [nM] |
| --- | --- |
| CC1CCCN(C(=O)c2nc(Nc3cc4c(cc3F)OCO4)sc2Cl)C1C (stereo not drawn) | 5 |
| CC1CC(C)CN(C(=O)c2csc(Nc3ccc4c(c3)OCO4)n2)C1 (stereo not drawn) | 10 |
| Cc1sc(Nc2ccc(Cl)cc2F)nc1C(=O)N1CCC[C@H](C)[C@@H]1C | 3 |
| C=C[C@@](C)(O)CC[C@H]1C(=C)C[C@H](OC(=O)NC)[C@H]2C(C)(C)CCC[C@]12C | 840 |

What follows are compounds tested against T3, Short transient receptor potential channel 6 (Mus musculus) (assay: Antagonist activity at mouse TRPC6 stably expressed in HEK293 cells assessed as inhibition of calcium influx at 10 uM by calcium fluorescence assay). Details: not given.
Type: cell-based

| SMILES | inhibition |
| --- | --- |
| CC(=O)NCCN(Cc1ccc2ccccc2c1)c1nc(C(=O)Nc2ccc(O)cc2)cs1 | inactive |
